The values that follow come from patent publication US9918963B2, “Therapeutic agent for disease based on inhibitory effect of macrophage migration inhibitory factor” (TOYAMA CHEMICAL CO., LTD., priority 2013, dated 2018).

Bounds are passed on as bounds.

The inhibition is the share of the control response that was lost under treatment.

Data set [1] has as its system chronic constriction nerve injury model rat. The data set is described as follows: Chronic constriction nerve injury model rat, mechanical allodynia by von Frey test. It is filed as in vivo. The note with it: von Frey test, left hind paw. Here is the method: This test was performed by referring to a method of Bennett et al. (Pain, 1988, vol. 33, pp. 87-107). Compound A was used as a test substance, and celecoxib, one of NSAIDs, was used as a reference substance. The compound A was administered at a dose of 30 mg/kg (Compound A group). The celecoxib was administered at a dose of 30 mg/kg (celecoxib group). To a control group, a 0.5% methyl cellulose aqueous solution used as a vehicle was administered. Under anesthetic with Somnopentyl (manufactured by Kyoritsu Seiyaku Corporation, about 52 mg/kg, intraperitoneal administration), nerve constriction operation was performed on the left sciatic nerves of Sprague-Dawley male rats (7 weeks old). Briefly, a left femoral region of each rat was dissected, the sciatic nerve was detached from tissues around, and the nerve was loosely constricted with a 4-0 silk suture (manufactured by Eticon Inc., surgical silk) for having narrow parts in four positions at intervals of about 1 mm. The muscular layer and the skin were respectively sutured, and the operation region was disinfected. The vehicle, the test substance or the reference substance was orally administered once a day continuously for 14 days from the 16th day after the operation. From the start of the administration, pain sense (mechanical allodynia) of the footpad of left hind paw was evaluated by von Frey test. […] The evaluation of the pain sense was expressed as an average of pain threshold values.

In another data set the target is T1, MIF (Homo sapiens, UniProt P14174).
T1 construct: (catalogue number not given); host or cells: E. coli BL21 Star (DE3)
T1 sequence (P14174 2-115 limits assumed): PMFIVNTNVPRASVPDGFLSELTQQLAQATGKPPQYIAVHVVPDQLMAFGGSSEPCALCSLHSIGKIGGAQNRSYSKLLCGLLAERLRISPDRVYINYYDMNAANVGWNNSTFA
The data set can be described thus: Inhibition of MIF tautomerase activity (L-dopachrome methyl ester, absorbance at 475 nm). It counts as biochemical. The note with it: 30 μmol/L test substance, 10 to 50 nmol/L MIF, pH 6.2, control = 100%; read-out: Inhibition Rate of Tautomerase Reaction. Here is the method:
The inhibitory effect of test substances against tautomerase activity of MIF was evaluated by referring to a method of Healy et al. (Cancer Epidemiology Biomarkers and Prevention, 2011, vol. 20, pp. 1516-1523).
In this method, tautomeric reaction from L-3,4-dihydroxyphenylalanine methyl ester (L-dopachrome methyl ester, colored) to 5,6-hydroxyindole-2-carboxylic acid methyl ester (no color) is measured as a change in absorbance at 475 nm.
As an enzyme source, recombinant MIF manufactured by Abcam Plc. or MIF produced and purified by referring to a method of Lubetsky et al. (The Journal of Biological Chemistry, 2002, vol. 277, pp. 24976-24982) was used. A purification method for MIF is described below.
The pET15b vector (Merck) into which the full length gene sequence of MIF had been inserted was transfected E. coli BL21 Star (DE3) strain (Life Technologies Corporation). […] The E. coli were resuspended in buffer (pH 7.5) containing 20 mmol/L Tris (Wako Pure Chemical Industries, Ltd.), 20 mmol/L sodium chloride (Wako Pure Chemical Industries, Ltd.) and 1 mmol/L dithiothreitol (Wako Pure Chemical Industries, Ltd.), and the resultant was subjected to ultrasonic lysis and centrifugation at 15000 rpm for 10 minutes. The thus obtained supernatant was filtered using a 0.20 μm filter, and was allowed to pass through HiTrap Q HP and HiTrap SP HP columns (GE Healthcare Japan Corporation), so as to separate flow-through fractions each of 5 mL. Each of 10 μL of the separated fractions was subjected to the electrophoresis using 5 to 20% polyacrylamide gel (Wako Pure Chemical Industries, Ltd.), and all proteins were stained with Coomassie brilliant blue reagent (Bio-Rad Laboratories, Inc.). On the basis of results thus obtained, a fraction containing a large amount of MIF and containing least amount of other proteins was selected as purified MIF. The concentration of MIF protein was measured by using BCA protein assay reagent (Thermo Fisher Scientific K. K.).
Inhibitory effect of each test substance against MIF tautomerase activity was measured as follows.
A final concentration of 10 to 50 nmol/L of MIF and a final concentration of 30 μmol/L of each test substance or 0.5% dimethyl sulfoxide (Wako Pure Chemical Industries, Ltd.) as a control were added to buffer (pH 6.2) containing 50 mmol/L Bis-Tris (Dojindo Laboratories) and 1 mmol/L EDTA (Dojindo Laboratories), and reaction was performed at room temperature for 15 minutes to give a reaction solution 1.
On the other hand, 1/20 volume of 12 mmol/L L-3,4-dihydroxyphenylalanine methyl ester (Sigma Aldrich) and 1/20 volume of 24 mmol/L sodium periodate (Wako Pure Chemical Industries, Ltd.) were added to buffer having the same composition as that used for obtaining the reaction solution 1, to give a reaction solution 2.
Next, the reaction solution 1 and the reaction solution 2 were mixed, and the temporal change of absorbance at 475 nm of the obtained mixture was immediately measured.
The difference of the absorbencies between the at about 1 minute after the measurement start and at about 5 minutes after was obtained. Assuming that the absorbance change of the control is 100%, an inhibiting rate of the tautomerase reaction in presence of=each test substance was calculated.

The test system of data set [2] is chronic relapsing EAE model of mouse. It is filed as in vivo. Here is the method:
Compound A was selected as a test substance, and salazosulfapyridine (hereinafter referred to as SASP) was selected as a comparative control agent. Compound A was administered at a dose of 30 mg/kg (Compound A group). SASP was administered at a dose of 300 mg/kg (SASP group). In control group and normal group (no induction treatment group), 0.5% methyl cellulose aqueous solution used as vehicle of the administration liquid was administered.
The chronic relapsing EAE was induced in SJL/J female mice by immunization with partial PLP peptide. Briefly, an emulsion was prepared by mixing equivalent volumes of phosphate buffer saline containing 1 mg/mL of the peptide corresponding to residues 139-151 of the PLP and Freund's […] adjuvant containing 4 mg/mL of killed M. Tuberculosis H37Ra. The emulsion was intradermically injected (50 μg of PLP per mouse) into four positions on the back for immunization, and additionally, on the day of the immunization and two days after, pertussis toxin was intraperitoneally injected in each amount of 150 ng per mouse, twice in total. The vehicle, the test substance or the reference article was orally administered continuously for 44 days once daily from the day of the immunization.
In the present experiment, paralysis was developed to reach a peak on the 14th to 16th day after the immunization, and the symptom remitted once, but relapsed to reach a peak on the 38th day.
The symptom was evaluated in accordance with a report of Weaver et al. (FASEB Journal, 2005, vol. 19, p. 1668). Briefly, paralysis of all of the four limbs and the tail was evaluated by scoring in 4 ranks of scores of 0 to 3 and in 3 ranks of scores of 0 to 2, respectively, and the sum of the scores was determined as EAE score (the maximum score 14).
Incidence rates (the number of mice having developed the disease/the number of used mice) and the average of EAE score of each group were measured at the period of initial onset (on the 15th day after the immunization) and at the period of relapse (on the 38th day after the immunization).

For the compound `Cc1ccc(-c2cc(C(F)(F)F)nn2-c2ccc(S(N)(=O)=O)cc2)cc1` [Celecoxib, celecoxib, reference compound], the “Average of pain thresholds, 30th day after operation” value in data set [1] (30 mg/kg orally once a day for 14 days from the 16th day after operation) is 3.1 g. In data set [1] (day before start of administration, 30 mg/kg groups), the “Average of pain thresholds, 15th day after operation” value stood at 2.5 g.
With `CS(=O)(=O)Nc1cc2occ(N)c(=O)c2cc1Oc1ccccc1` [Compound B, N-(3-amino-4-oxo-6-phenoxy-4H-1-benzopyran-7-yl)methanesulfonamide], the inhibition at 30 µM at MIF was in the range of 50 to 75%.
For the compound `CC(=O)Nc1coc2cc(NS(C)(=O)=O)c(Oc3ccccc3)cc2c1=O` [Compound C, N-[7-[(methylsulfonyl)amino]-4-oxo-6-phenoxy-4H-1-benzopyran-3-yl]acetamide], the inhibition at 30 µM at MIF was 50 to 75%.
On the same count and under the same terms, the same measure for `CS(=O)(=O)Nc1cc2occc(=O)c2cc1Oc1ccccc1` [Compound D, N-(4-oxo-6-phenoxy-4H-1-benzopyran-7-yl)methanesulfonamide]: 50 to 75%; for `CS(=O)(=O)Nc1cc2oc(C(N)=O)cc(=O)c2cc1Oc1ccccc1` [Compound E, 7-[(methylsulfonyl)amino]-4-oxo-6-phenoxy-4H-1-benzopyran-2-carboxamide]: no less than 75%.
Same read-out and setting: the same measure for `CC(=O)Nc1cc(=O)c2cc(Oc3ccccc3)c(NS(C)(=O)=O)cc2o1` [Compound F, N-[7-[(methylsulfonyl)amino]-4-oxo-6-phenoxy-4H-1-benzopyran-2-yl]acetamide]: no less than 75%; for `CS(=O)(=O)Nc1cc2occ(C(N)=O)c(=O)c2cc1Oc1ccccc1` [Compound G, 7-[(methylsulfonyl)amino]-4-oxo-6-phenoxy-4H-1-benzopyran-3-carboxamide]: 50 to 75%; for `CCS(=O)(=O)Nc1cc2occ(NC=O)c(=O)c2cc1Oc1ccccc1` [Compound H, N-[7-[(ethylsulfonyl)amino]-4-oxo-6-phenoxy-4H-1-benzopyran-3-yl]formamide]: no less than 75%.
Same read-out and setting: with `CS(=O)(=O)Nc1cc2oc(-c3ccccc3)cc(=O)c2cc1Oc1ccccc1` [Compound I, N-(4-oxo-6-phenoxy-2-phenyl-4H-1-benzopyran-7-yl)methanesulfonamide] the figure was no less than 75%.
Turning to `O=C(O)c1cc(/N=N/c2ccc(S(=O)(=O)Nc3ccccn3)cc2)ccc1O` [SASP, salazosulfapyridine], the “Animals died, by period of initial onset” value in data set [2] (15th day after immunization, 8 animals, 300 mg/kg orally once daily) is listed as “(1 animal”. Besides, the “EAE score, period of initial onset” value in data set [2] (15th day after immunization, average, maximum score 14, oral once daily (Compound A 30 mg/kg, SASP 300 mg/kg)) came to 5.5. The “Incidence rate, period of initial onset” value in data set [2] (15th day after immunization, mice having developed the disease/mice used, oral once daily from immunization (Compound A 30 mg/kg, SASP 300 mg/kg)) is reported as 7/7. Moreover, the “Animals died, by period of relapse” value in data set [2] (38th day after immunization, 8 animals, 300 mg/kg orally once daily) was “(2 animals”. Besides, the “EAE score, period of relapse” value in data set [2] (38th day after immunization, average, maximum score 14, oral once daily (Compound A 30 mg/kg, SASP 300 mg/kg)) is 2.0. The “Incidence rate, period of relapse” value in data set [2] (38th day after immunization, mice having developed the disease/mice used, oral once daily (Compound A 30 mg/kg, SASP 300 mg/kg)) is 6/6. Besides, the “Effect on incidence rate / EAE score, paralysis of chronic relapsing EAE” value in data set [2] (oral once daily for 44 days from immunization (Compound A 30 mg/kg, SASP 300 mg/kg)) is given as “neither the incidence rate nor the EAE score was lowered”.
